In ChEMBL document CHEMBL4627256, “N-(3,5-Dichloro-4-(2,4,6-trichlorophenoxy)phenyl)benzenesulfonamide: A new dual-target inhibitor of mitochondrial complex II and complex III via structural simplification” (Bioorg Med Chem, 2020):

How the values were obtained:
[1] = Inhibition of porcine succinate-cytochrome c reductase using succinate and cytochrome c as substrates by spectrophotometric based assay; parameters: species or system Sus scrofa
Sus scrofa [2] = organism: Sus scrofa; assay: Inhibition of porcine heart succinate-cytochrome c reductase at 10 uM using succinate and cytochrome c as substrates by spectrophotometric based assay relative to control
Sus scrofa [3] = organism: Sus scrofa; assay: Inhibition of porcine cytochrome b-c1 complex at 10 uM using DBH2 and cytochrome c as substrates by spectrophotometric based assay relative to control
[4] = Inhibition of porcine succinate-ubiquinone oxidoreductase using succinate and 2,6-dichloroindophenol as substrates by spectrophotometric based assay; parameters: species or system Sus scrofa
[5] = Inhibition of porcine cytochrome b-c1 complex using DBH2 and cytochrome c as substrates by spectrophotometric based assay; parameters: species or system Sus scrofa
Sus scrofa [6] = organism: Sus scrofa; assay: Inhibition of porcine succinate-ubiquinone oxidoreductase at 10 uM using succinate and 2,6-dichloroindophenol as substrates by spectrophotometric based assay relative to control

| SMILES | IC50 [1] [µM] | other results |
| --- | --- | --- |
| O=[N+]([O-])c1ccc(S(=O)(=O)Nc2cc(Cl)c(Oc3c(Cl)cc(Cl)cc3Cl)c(Cl)c2)cc1 | 1.58 |  |
| O=S(=O)(Nc1ccc(Oc2ccccc2)cc1)c1ccccc1 | > 10 | inhibition (Sus scrofa [2]): 32% |
| O=S(=O)(Nc1cc(Cl)c(Oc2ccc(Cl)cc2Cl)c(Cl)c1)c1c(Cl)cc(Cl)cc1Cl | 1.12 |  |
| Cc1ccc(S(=O)(=O)Nc2cc(Cl)c(Oc3c(Cl)cc(Cl)cc3Cl)c(Cl)c2)cc1 | 1.66 |  |
| Cc1ccccc1S(=O)(=O)Nc1cc(Cl)c(Oc2c(Cl)cc(Cl)cc2Cl)c(Cl)c1 | 0.8 |  |
| O=S(=O)(Nc1ccc(Oc2ccc(Cl)cc2Cl)c(Cl)c1)c1ccc(Cl)cc1Cl | 1.3 |  |
| O=S(=O)(Nc1cc(F)c(Oc2c(F)cc(F)cc2F)c(F)c1)c1ccccc1 | 6.44 | inhibition (Sus scrofa [3]): 40%; IC50 [4]: 2.02 µM |
| O=S(=O)(Nc1cc(Cl)c(Oc2c(Cl)cc(Cl)cc2Cl)c(Cl)c1)c1ccc(Cl)cc1 | 0.63 |  |
| O=S(=O)(Nc1cc(Cl)c(Oc2c(Cl)cc(Cl)cc2Cl)c(Cl)c1)c1ccc(F)cc1 | 0.83 |  |
| O=S(=O)(Nc1cc(Cl)c(Oc2c(Cl)cc(Cl)cc2Cl)c(Cl)c1)c1ccccc1 | 0.08 | IC50 [5]: 3.06 µM; IC50 [4]: 0.51 µM |
| O=S(=O)(Nc1cc(Cl)c(Oc2ccc(Cl)cc2Cl)c(Cl)c1)c1ccc(C(F)(F)F)cc1Cl | 1.17 |  |
| O=S(=O)(Nc1ccc(Oc2c(Cl)cc(Cl)cc2Cl)c(Cl)c1)c1ccccc1 | > 10 | inhibition (Sus scrofa [2]): 47% |
| CC(C)CC(C)c1sccc1NC(=O)c1cn(C)nc1C(F)(F)F (centres undefined) [PENTHIOPYRAD] | 1.32 | inhibition (Sus scrofa [3]): < 10%; IC50 [4]: 1.19 µM |
| O=S(=O)(Nc1ccc(Oc2ccc(Cl)cc2Cl)c(Cl)c1)c1ccccc1 | 1.98 |  |
| O=S(=O)(Nc1ccc(Oc2ccc(Cl)cc2Cl)cc1)c1ccccc1 | 9.28 |  |
| O=S(=O)(Nc1cc(Cl)c(Oc2ccc(Cl)cc2Cl)c(Cl)c1)c1ccc(Cl)cc1Cl | 1.38 |  |
| CN(C)S(=O)(=O)n1cnc(S(=O)(=O)Nc2cc(Cl)c(Oc3c(Cl)cc(Cl)cc3Cl)c(Cl)c2)n1 | 3.2 | IC50 [5]: 35.5 µM; IC50 [4]: 0.5 µM |
| O=[N+]([O-])c1ccc(S(=O)(=O)Nc2ccc(Oc3ccc(Cl)cc3Cl)c(Cl)c2)cc1 | 2.24 |  |
| O=S(=O)(Nc1ccc(Oc2ccc(Cl)cc2Cl)c(Cl)c1)c1c(Cl)cc(Cl)cc1Cl | 1.33 |  |

| SMILES | IC50 [1] [µM] | other results |
| --- | --- | --- |
| COc1ccc(S(=O)(=O)Nc2cc(Cl)c(Oc3c(Cl)cc(Cl)cc3Cl)c(Cl)c2)cc1 | 1.87 |  |
| O=S(=O)(Nc1cc(Cl)c(Oc2ncc(C(F)(F)F)cc2Cl)c(Cl)c1)c1ccccc1 | > 10 | inhibition (Sus scrofa [2]): 9% |
| O=S(=O)(Nc1cc(Cl)c(Oc2c(Cl)cc(Cl)cc2Cl)c(Cl)c1)c1ccc(C(F)(F)F)cc1 | 0.53 |  |
| O=S(=O)(Nc1cc(Cl)c(Oc2c(Cl)cc(Cl)cc2Cl)c(Cl)c1)c1c(Cl)cc(Cl)cc1Cl | 0.22 |  |
| O=S(=O)(Nc1cc(Cl)c(Oc2c(Cl)cc(Cl)cc2Cl)c(Cl)c1)c1ccc(Cl)cc1Cl | 1.03 |  |
| O=S(=O)(Nc1cc(Cl)c(Oc2ccc3ccccc3c2)c(Cl)c1)c1ccccc1 | > 10 | inhibition (Sus scrofa [2]): 48% |
| Cc1cccc(S(=O)(=O)Nc2cc(Cl)c(Oc3c(Cl)cc(Cl)cc3Cl)c(Cl)c2)c1 | 0.38 |  |
| O=S(=O)(Nc1ccc(Oc2ccc(Cl)cc2Cl)cc1)c1c(Cl)cc(Cl)cc1Cl | 1.49 |  |
| O=S(=O)(Nc1ccc(Oc2ccc3ccccc3c2)c(Cl)c1)c1ccccc1 | > 10 | inhibition (Sus scrofa [2]): 47% |
| O=[N+]([O-])c1ccc(S(=O)(=O)Nc2cc(Cl)c(Oc3ccc(Cl)cc3Cl)c(Cl)c2)cc1 | 3.57 |  |
| Cc1cc(C)c(Oc2c(C)cc(NS(=O)(=O)c3ccccc3)cc2C)c(C)c1 | > 10 | inhibition (Sus scrofa [2]): 3% |
| O=[N+]([O-])c1ccc(S(=O)(=O)Nc2ccc(Oc3ccc(Cl)cc3Cl)cc2)cc1 | 4.86 |  |
| CO/C=C(/C(=O)OC)c1ccccc1Oc1cc(Oc2ccccc2C#N)ncn1 [AZOXYSTROBIN] | 0.29 | inhibition (Sus scrofa [6]): 23%; IC50 [5]: 0.53 µM |
| O=S(=O)(Nc1ccc(Oc2ccc(Cl)cc2Cl)cc1)c1ccc(C(F)(F)F)cc1Cl | 1.37 |  |
| O=S(=O)(Nc1ccc(Oc2ccc(Cl)cc2Cl)cc1)c1ccc(Cl)cc1Cl | 1.62 |  |
| O=S(=O)(Nc1ccc(Oc2ccc(Cl)cc2Cl)c(Cl)c1)c1ccc(C(F)(F)F)cc1Cl | 1.08 |  |
| O=S(=O)(Nc1cc(Cl)c(Oc2ccc(Cl)cc2Cl)c(Cl)c1)c1ccccc1 | 1.1 |  |
| O=S(=O)(Nc1cc(Cl)c(Oc2c(Cl)cc(Cl)cc2Cl)c(Cl)c1)c1ccc(C(F)(F)F)cc1Cl | 1.08 |  |
| CC(C)(C)c1ccc(S(=O)(=O)Nc2cc(Cl)c(Oc3c(Cl)cc(Cl)cc3Cl)c(Cl)c2)cc1 | 0.99 |  |
